The values that follow come from patent EP2207528B1, “PHARMACEUTICAL COMPOSITION” (STI Pharmaceuticals Ltd., priority 2007, dated 2009).

In brackets after ≈: the same amount, converted by molar mass. Where two headings read alike, the source gives them in different places. Some results are limits rather than exact numbers.

Data set [1] can be described thus: Solubility of local anaesthetic in ethanol and HFA 227.
Data set [2] can be described thus: Open study, THC-CBD inhaled (pMDI) vs intravenous, plasma pharmacokinetics by GC/MS. The conditions noted are these: for time measurable in plasma after administration: 360 mcg i.h. and i.v. doses; for half-life: human, plasma, 720 ug, read-out: elimination half-lives; for half-life / mean i.h. bioavailability (calculated vs. i.v.) / time of plasma peak post-drug: 720 mcg. It is filed as in vivo, healthy volunteers. An excerpt: In an open study on 12 healthy volunteers a combination of THC and cannabidiol (CBD) was compared after inhalation (i.h.) and intravenously (i.v.) (see Rudolf Brenneisen, Pascale Meyer, Manuela Langos, Christian Steup and Andrew Davies, IACM Congress 2007, 05.10.2007 Cologne).
The liquid aerosol was produced by an in-vitro validated pMDI device, releasing about 45% of the cannabinoid dose, enabling a dosage of about 90 mcg THC and 90 mcg CBD per actuation. The actuator was used from Bespak with an orifice diameter of 0.22mm.
Three subjects (pilot study) received 360 and 9 subjects 720 mcg THC-CBD, corresponding to 4 and 8 actuations, respectively. The addition of a Lidocain HCL to the pulmonal preparation was expected to prevent mucosa irritation and coughing. The pharmacokinetic evaluation was based on plasma profiles aquired by GC/MS. Adverse effects were monitored by visual analog scales (VAS) and measuring vital functions.

The conditions of data set [3]: after inhalation of a THC aerosol, Pari Master; cited from earlier work.
For data set [4] the following is noted: oral; cited from earlier work.

The term solubility denotes the dissolved amount per volume that the medium holds. Usually bioavailability stands for the share of a dose that reaches the circulation, judged against a reference dose that is usually intravenous.

Take `CCCCNc1ccc(C(=O)OCCN(C)C)cc1` [Tetracain, Tetracaine Base]: the solubility came out at 450 mg/mL (≈ 1700 mM) in data set [1] (ethanol, organic solvent or mixture) and 40 mg/mL (≈ 151 mM) in data set [1] (hfa 227, organic solvent or mixture). Besides, the “Limit of solubility in Ethanol” value in data set [1] (in Ethanol) is 450 mg/mL. In data set [1] (in HFA 227), the “Limit of solubility in HFA 227” value was found to be 40 mg/mL.

For `C=C(C)[C@@H]1CCC(C)=C[C@H]1c1c(O)cc(CCCCC)cc1O` [CBD, Cannabidiol], in data set [2], the “time measurable in plasma after administration” value is reported as at most 20 min. Besides, the half-life was found to be 11 min in data set [2] (inhaled, i.h.) and 24 min in data set [2] (iv, i.v.). Moreover, the “mean i.h. bioavailability (calculated vs. i.v.)” value in data set [2] (i.h.) is on record as 59 ± 47%. The “time of plasma peak post-drug” value in data set [2] (i.h.) and in data set [2] (i.v.) was 5 min in each case.

On to `CCCCCc1cc(O)c2c(c1)OC(C)(C)[C@@H]1CCC(C)=C[C@@H]21` [THC, delta-9-Tetrahydrocannabinol], for which the “time measurable in plasma after administration” value in data set [2] was at most 20 min. Also, the main metabolite entry in data set [2] (after i.h.) is on record as “Conjugated 11-carboxy-THC”. In addition, the THC metabolism result in data set [2] (after i.h., compared with oral (p.o.) administration) was “less pronounced than after oral”. In addition, the half-life was determined as 7 min in data set [2] (inhaled, i.h.) and 22 min in data set [2] (iv, i.v.). Also, the “mean i.h. bioavailability (calculated vs. i.v.)” value in data set [2] (i.h.) was 55 ± 37%. The “time of plasma peak post-drug” value in data set [2] (i.h.) and in data set [2] (i.v.) was 5 min throughout. Also, the bioavailability in data set [3] was 29%; in data set [4], 5-20%.
